In brackets after ≈: the same amount, converted by molar mass. Read-outs that look alike come from different tables or passages of the source. Values belong to the compound of their own block, whether it stands above or below them.
Legend:
R. oryzae UCP1295 [1] = test: Antifungal drug synergy assay, checkerboard method (FICI); format: cell-based, Rhizopus oryzae; settings: Rhizopus arrhizus, UCP1295, 48 h; drug alone; read-out: MIC50 Alone
Method: (§1) Synergistic interactions were evaluated using the checkerboard method according to EUCAST guidelines (EUCAST 2008). R. oryzae conidia (2 × 10^5/mL) were grown in 96-well plates containing supplemented RPMI in the presence of the following selected compounds: […] An inhibition of at least 50% was defined as the cut-off for minimum inhibitory concentration (MIC). Interactions were determined by the fractional inhibitory concentration index (FICI), which was calculated using the following formula: (MIC combined/MIC drug A alone) + (MIC combined/MIC drug B alone). […] The Bliss independence model calculation was performed according to […] colleagues and Zhao and colleagues. The following formula was used to assess drug interaction: […] The results were classified as follows: synergistic effect when Eobs > Eexp; indifference when Eobs = Eexp; antagonistic effect when Eobs < Eexp.

R. oryzae [2] = test: Antifungal drug synergy assay, Bliss independence model; format: cell-based, Rhizopus oryzae; parameters: key to Interaction: S, synergistic interaction; A, antagonist interaction; Efficacy of Combined Drugs, E obs / Efficacy of Combined Drugs, E exp: concentration or dose not given beside the values; settings: for Efficacy of Drugs Alone (% of Inhibition), MIC50: at MIC50; for Efficacy of Drugs Alone (% of Inhibition), ½ MIC50: at ½ MIC50; for ΔE: Eobs minus Eexp; for Efficacy of Combined Drugs, E exp: expected by Bliss calculation
Method: as §1

[3] = test system: R. oryzae, R. microsporus and R. stolonifer; test: Antifungal susceptibility testing, values stated over the three species; format: cell-based; settings: over the three Rhizopus species
Method: (§2) The susceptibility of the Rhizopus species to MMV396785 (alexidine), MMV1580844, MMV642550 and MMV019724 was determined using the broth microdilution method, according to EUCAST protocols, with modifications. Posaconazole and amphotericin B were also used as reference antifungal drugs because they are commonly used for the treatment of mucormycosis. […] A standardized suspension of conidia (2 × 10^5/mL) was added to the wells and incubated for 48 h at 37 °C, in a 5% CO2 atmosphere. Fungal growth was analyzed via spectrophotometry readings at 600 nm and cell viability was assessed using the XTT reduction assay. Minimum inhibitory concentration (MIC) of each compound was defined as the lowest concentration that inhibits 50% of fungal growth, because these fungi are highly resistant to antifungal drugs and a reduction in half of their growth is relevant. […] MFC values were defined as the lowest drug concentration able to arrest fungal growth.

R. oryzae UCP1295 [4] = test: Screening of the Pandemic Response Box library at 5 µM; format: cell-based, Rhizopus oryzae; settings: for inhibition at 5 µM: Rhizopus arrhizus, UCP1295, 48 h; for Viability Inhibition (XTT): XTT reduction; for % of growth inhibition, Mean: 48 h
Summary of the method: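 Growth inhibition was read at 600 nm after conidia (2 × 10^5/mL) grew 48 h at 37 °C, 5% CO2, with 5 μM compound in glucose-supplemented (2%), MOPS-buffered RPMI (pH 7.2). Controls were posaconazole at 5 μM and 1% DMSO. The selection cut-off was at least 60% inhibition.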

R. microsporus = test: Antifungal susceptibility testing (broth microdilution, MIC and MFC); format: cell-based, Rhizopus microsporus var. microsporus; settings: for MIC50 / MFC: Rhizopus microsporus, 48 h; for MIC50: lowest concentration that inhibits 50% of fungal growth; for MFC: subculture in drug-free medium
Method: as §2

R. stolonifer = test: as above; format: cell-based, Rhizopus stolonifer; settings: for MIC50 / MFC: Rhizopus stolonifer, 48 h; for MIC50: lowest concentration that inhibits 50% of fungal growth; for MFC: subculture in drug-free medium
Method: as §2

R. oryzae [5] = test: as above; format: cell-based, Rhizopus oryzae; settings: for MIC50 / MFC: Rhizopus arrhizus, 48 h; for MIC50: lowest concentration that inhibits 50% of fungal growth; for MFC: subculture in drug-free medium
Method: as §2

[6] = test system: R. microsporus preformed biofilm; test: Preformed biofilm assay; format: cell-based, Rhizopus microsporus; settings: R. microsporus, based on biofilm viability parameter
Method: (§3) For the preformed biofilm assay, cells were cultured as described above in the absence of the compounds. […] An additional incubation of 24 h at 37 °C was performed to evaluate the anti-biofilm activity. Evaluation of both biofilm formation and preformed biofilms was performed using three parameters as previously described. Crystal violet, safranin and XTT assays were used to analyze the overall biomass, extracellular matrix and metabolic activity, respectively.

R. oryzae cells = test: Analysis of fungal cell alterations with fluorescent staining; format: cell-based, Rhizopus oryzae; settings: ½× MIC50, 48 h
Method: Alterations of R. oryzae cells caused by alexidine, MMV1580844, MMV642550 and MMV019724 were analyzed using fluorescent staining. Chitin, nucleic acid, oxidative stress, mitochondrial membrane potential and neutral lipid content were evaluated using calcofluor white (Sigma-Aldrich, MO, USA), Sytox Blue (ThermoFisher, Waltham, MA, USA), 2′,7′–dichlorofluorescein diacetate (DCFH-DA) (Sigma-Aldrich, MO, USA), JC-1 probe (ThermoFisher, Waltham, MA, USA) and Nile Red (Sigma-Aldrich, MO, USA), respectively. […] Cells were stained with 25 μg/mL of calcofluor white, 20 μM of Sytox Blue, 50 μg/mL of DCFH-DA, 10 μg/mL of JC-1 or 20 μg/mL of Nile Red, all of them for 1 h at 37 °C in the dark. Samples were washed three times to remove residual dye and suspended in PBS. Fluorescence intensity was measured using the SpectraMax 340 microplate reader (Molecular Devices, San José, CA, USA) under the following conditions: calcofluor white at 350 nm (excitation) and 432 nm (emission); Sytox Blue at 444 nm (excitation) and 480 nm (emission); DCFH-DA at 492 nm (excitation) and 517 nm (emission); JC-1 at 475 nm (excitation) and 529 nm (green fluorescence) or 590 nm (red fluorescence) for the calculation of the red/green fluorescence intensity; and Nile Red at 550 nm (excitation) and 635 nm (emission).

[7] = test system: R. stolonifer preformed biofilm; test: Preformed biofilm assay; format: cell-based, Rhizopus stolonifer; settings: R. stolonifer, based on biofilm viability parameter
Method: as §3

[8] = Cytotoxicity assay (neutral red); format: cell-based; settings: human
Method: (§4) Cytotoxicity of alexidine, MMV1580844, MMV642550 and MMV019724 was performed using three cell lineages: RAW 264.7, a murine macrophage culture; A549, adenocarcinomic human alveolar basal epithelial cells; and HaCaT, a spontaneously transformed aneuploid immortal keratinocyte cell line from adult human skin. Cells were grown in DMEM (Dulbecco’s Modified Eagle’s Medium, Sigma-Aldrich, MO, USA), supplemented with 10% fetal bovine serum and incubated for 48 h at 37 °C with 5% CO2 in the presence of serially diluted concentrations (0.3–50 μM) of each compound. Cell viability was measured using the neutral red (NR) assay and quantified using a spectrophotometer at 595 nm (SpectraMax® i3x, Molecular Devices®, San José, CA, USA).

[9] = Cytotoxicity assay (neutral red); format: cell-based, murine; settings: mouse, RAW 264.7 macrophage cells
Method: as §4

[10] = cited from earlier work
[11] = Table S1, mean of the four values, read-out: % of growth inhibition, Mean
[12] = optical density 600 nm, read-out: Growth Inhibition
[13] = Table S1, mean of the four values

SMILES: CC[C@@H]([C@H](C)O)n1ncn(-c2ccc(N3CCN(c4ccc(OC[C@@H]5CO[C@@](Cn6cncn6)(c6ccc(F)cc6F)C5)cc4)CC3)cc2)c1=O [Posaconazole, reference compound]
MIC (R. oryzae UCP1295 [1]): 1.25 µM
Efficacy of Drugs Alone (% of Inhibition), MIC50 (R. oryzae [2]): 63.4 % of Inhibition
Efficacy of Drugs Alone (% of Inhibition), ½ MIC50 (R. oryzae [2]): 6.5 % of Inhibition
MFC [3]: > 20 µM
MIC [3]: 0.63 to 2.5 µM (≈ 0.441 to 1.75 µg/mL)
inhibition at 5 µM (R. oryzae UCP1295 [4]; [11]): 56.3%
inhibition at 5 µM (R. oryzae UCP1295 [4]; [12]): 56%
Viability Inhibition (XTT) (R. oryzae UCP1295 [4]): 73%
MIC50 (R. microsporus): 2.5 µM (≈ 1.75 µg/mL)
MFC (R. microsporus): > 20 µM
MIC50 (R. stolonifer): 0.63 µM (≈ 0.441 µg/mL)
MFC (R. stolonifer): > 20 µM
MIC50 (R. oryzae [5]): 1.25 µM (≈ 0.876 µg/mL)
MFC (R. oryzae [5]): > 20 µM

MIC (R. oryzae UCP1295 [1]): 2.5 µM
Efficacy of Drugs Alone (% of Inhibition), MIC50 (R. oryzae [2]): 62.9 % of Inhibition
Efficacy of Drugs Alone (% of Inhibition), ½ MIC50 (R. oryzae [2]): 42.3 % of Inhibition
MIC [3]: 2.5 to 5 µM (≈ 0.874 to 1.75 µg/mL)
MIC50 (R. microsporus): 5 µM (≈ 1.75 µg/mL)
MIC50 (R. stolonifer): 2.5 µM (≈ 0.874 µg/mL)
MIC50 (R. oryzae [5]): 2.5 µM (≈ 0.874 µg/mL)
SMILES: Oc1cccc(C(Nc2nccs2)c2ccc3cccnc3c2O)c1 (stereo not shown) [MMV642550]
Efficacy of Combined Drugs, E obs (R. oryzae [2]; combined with Amphotericin B): 78.1%
Interaction (R. oryzae [2]; combined with Amphotericin B): S
ΔE (R. oryzae [2]; combined with Amphotericin B): 23.5%
Efficacy of Combined Drugs, E exp (R. oryzae [2]; combined with Amphotericin B): 54.6%
Efficacy of Combined Drugs, E obs (R. oryzae [2]; combined with Posaconazole): 60.0%
Interaction (R. oryzae [2]; combined with Posaconazole): A
ΔE (R. oryzae [2]; combined with Posaconazole): −26.5%
Efficacy of Combined Drugs, E exp (R. oryzae [2]; combined with Posaconazole): 86.5%
inhibition at 5 µM (R. oryzae UCP1295 [4]; [11]): 59.8%
inhibition at 5 µM (R. oryzae UCP1295 [4]; [12]): 60%
Viability Inhibition (XTT) (R. oryzae UCP1295 [4]): 59%
Selectivity Index (SI), Preformed Biofilm [6]: >5
Selectivity Index (SI), Planktonic Cell (R. microsporus; R. microsporus, from CC50 and MIC50 of planktonic cells): >10
MFC (R. microsporus): > 20 µM
chitin content (calcofluor white) (R. oryzae cells): decreased
neutral lipids (Nile Red) (R. oryzae cells): decreased
Selectivity Index (SI), Planktonic Cell (R. stolonifer; R. stolonifer, from CC50 and MIC50 of planktonic cells): >20
MFC (R. stolonifer): > 20 µM
Selectivity Index (SI), Preformed Biofilm [7]: >10
CC50 at 48 h ([8]; A549 alveolar basal epithelial cells, A549, 48 h): > 50 µM
CC50 at 48 h ([8]; HaCaT keratinocyte cells): > 50 µM
CC50 at 48 h [9]: > 50 µM
Selectivity Index (SI), Planktonic Cell (R. oryzae [5]; R. oryzae, from CC50 and MIC50 of planktonic cells): >20
MFC (R. oryzae [5]): > 20 µM

MIC (R. oryzae UCP1295 [1]): 40 µM
Efficacy of Drugs Alone (% of Inhibition), MIC50 (R. oryzae [2]): 79.6 % of Inhibition
Efficacy of Drugs Alone (% of Inhibition), ½ MIC50 (R. oryzae [2]): 21.4 % of Inhibition
MIC [3]: > 20 µM
MIC50 (R. microsporus): > 20 µM
MIC50 (R. stolonifer): > 20 µM
MIC50 (R. oryzae [5]): > 20 µM
SMILES: C[C@@H]1[C@H](O)[C@@H](C)/C=C/C=C/C=C/C=C/C=C/C=C/C=C/[C@H](O[C@@H]2O[C@H](C)[C@@H](O)[C@H](N)[C@@H]2O)C[C@@H]2O[C@](O)(C[C@@H](O)C[C@@H](O)[C@H](O)CC[C@@H](O)C[C@@H](O)CC(=O)O[C@H]1C)C[C@H](O)[C@H]2C(=O)O [Amphotericin B, reference compound]
MFC [3]: > 20 µM
MFC (R. microsporus): > 20 µM
MFC (R. stolonifer): > 20 µM
oral bioavailability [10]: negligible
MFC (R. oryzae [5]): > 20 µM

SMILES: Cc1nc(-c2ccc(C3N(C)c4ccc(F)cc4C(=O)N3c3ccccc3)s2)cs1 (stereo not shown) [MMV1582492]
% of growth inhibition, Mean (R. oryzae UCP1295 [4]; [13]): -6.7%

SMILES: Cc1cc(C2CCCCC2)n(O)c(=O)c1 [MMV002731]
% of growth inhibition, Mean (R. oryzae UCP1295 [4]; [13]): -13.0%

SMILES: c1ccc(Cn2c(-c3ccccn3)nc3ccccc32)cc1 [MMV1578886]
% of growth inhibition, Mean (R. oryzae UCP1295 [4]; [13]): -11.3%

SMILES: CC(C)Nc1nc2cc(Cl)c(Cl)cc2n1[C@H]1O[C@@H](CO)[C@H](O)[C@@H]1O [MMV1593521]
% of growth inhibition, Mean (R. oryzae UCP1295 [4]; [13]): -13.4%

SMILES: COc1cc(Cc2cnc(N)nc2N)c2c(c1OC)OC(C1CC1)C=C2 (stereo not shown) [MMV1613563]
% of growth inhibition, Mean (R. oryzae UCP1295 [4]; [13]): -6.9%

SMILES: Nc1nc(N)c2c(Sc3ccccc3)cccc2n1 [MMV021759]
% of growth inhibition, Mean (R. oryzae UCP1295 [4]; [13]): -3.3%

SMILES: CN1CCN(Cc2ccc(-c3cnc4[nH]cc(-c5ccc6[nH]ccc6c5)c4c3)cc2)CC1 [MMV1580482]
% of growth inhibition, Mean (R. oryzae UCP1295 [4]; [13]): 1.5%
